Results taken from patent publication US20240158370A1, “CK1 alpha AND DUAL CK1 alpha / GSPT1 DEGRADING COMPOUNDS” (Innovo Therapeutics, Inc., priority 2022, published 2024).

How the values were obtained:
[1] = molecular target: T1, CK1α (Homo sapiens, UniProt P48729+Q96SW2); experiment: HiBiT degradation assay, CK1α, Procedure A; assay type: cell-based
T1 construct: CSNK1A1-HiBit KI HEK293(LgBit) Cells; host or cells: HEK293(LgBit) knock-in cells
Outline: (§1)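 Cells in DMEM + 10% FBS were treated with compound in a ten-point dose response from 10 μM to 0.005 μM (0.1% DMSO) for six hours at 37° C. Lysis with Nano-Glo HiBiT detection reagent followed, with luminescence read. DC50 and Ymin came from a 4-parameter fit.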

[2] = molecular target: GSPT1 (Homo sapiens, UniProt P15170+Q96SW2); experiment: HiBiT degradation assay, GSPT1, Procedure A; assay type: cell-based; set-up: HiBit-GSPT1 KI HEK293(LgBit) Cells; host or cells: HEK293(LgBit) knock-in cells
Sequence of GSPT1 (P15170 whole entry): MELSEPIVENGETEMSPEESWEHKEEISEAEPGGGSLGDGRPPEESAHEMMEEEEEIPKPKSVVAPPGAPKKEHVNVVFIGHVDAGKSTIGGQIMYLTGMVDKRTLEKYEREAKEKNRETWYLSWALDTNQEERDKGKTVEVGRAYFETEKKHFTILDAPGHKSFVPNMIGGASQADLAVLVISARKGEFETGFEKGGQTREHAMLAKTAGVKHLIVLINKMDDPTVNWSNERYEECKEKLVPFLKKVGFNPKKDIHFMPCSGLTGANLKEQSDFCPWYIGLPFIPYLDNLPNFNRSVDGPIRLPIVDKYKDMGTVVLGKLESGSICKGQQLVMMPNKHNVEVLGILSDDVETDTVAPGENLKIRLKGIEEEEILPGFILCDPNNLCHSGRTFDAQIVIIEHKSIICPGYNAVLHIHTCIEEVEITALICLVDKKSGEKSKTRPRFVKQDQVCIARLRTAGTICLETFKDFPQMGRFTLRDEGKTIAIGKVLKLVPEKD
Sequence of GSPT1 (Q96SW2 whole entry): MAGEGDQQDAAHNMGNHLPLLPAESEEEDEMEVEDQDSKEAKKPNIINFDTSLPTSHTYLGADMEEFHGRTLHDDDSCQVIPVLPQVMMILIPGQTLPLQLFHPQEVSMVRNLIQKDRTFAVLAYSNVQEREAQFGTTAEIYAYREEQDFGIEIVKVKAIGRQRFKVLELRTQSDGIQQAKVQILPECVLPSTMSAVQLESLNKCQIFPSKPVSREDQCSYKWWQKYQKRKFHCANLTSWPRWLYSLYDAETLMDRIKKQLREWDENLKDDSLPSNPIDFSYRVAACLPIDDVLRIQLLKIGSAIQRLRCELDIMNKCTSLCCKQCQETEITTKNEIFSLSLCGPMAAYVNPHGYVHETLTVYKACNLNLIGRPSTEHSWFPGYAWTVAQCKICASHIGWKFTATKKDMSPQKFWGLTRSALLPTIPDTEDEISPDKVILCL
Sequence of GSPT1 (Q16531 whole entry partner): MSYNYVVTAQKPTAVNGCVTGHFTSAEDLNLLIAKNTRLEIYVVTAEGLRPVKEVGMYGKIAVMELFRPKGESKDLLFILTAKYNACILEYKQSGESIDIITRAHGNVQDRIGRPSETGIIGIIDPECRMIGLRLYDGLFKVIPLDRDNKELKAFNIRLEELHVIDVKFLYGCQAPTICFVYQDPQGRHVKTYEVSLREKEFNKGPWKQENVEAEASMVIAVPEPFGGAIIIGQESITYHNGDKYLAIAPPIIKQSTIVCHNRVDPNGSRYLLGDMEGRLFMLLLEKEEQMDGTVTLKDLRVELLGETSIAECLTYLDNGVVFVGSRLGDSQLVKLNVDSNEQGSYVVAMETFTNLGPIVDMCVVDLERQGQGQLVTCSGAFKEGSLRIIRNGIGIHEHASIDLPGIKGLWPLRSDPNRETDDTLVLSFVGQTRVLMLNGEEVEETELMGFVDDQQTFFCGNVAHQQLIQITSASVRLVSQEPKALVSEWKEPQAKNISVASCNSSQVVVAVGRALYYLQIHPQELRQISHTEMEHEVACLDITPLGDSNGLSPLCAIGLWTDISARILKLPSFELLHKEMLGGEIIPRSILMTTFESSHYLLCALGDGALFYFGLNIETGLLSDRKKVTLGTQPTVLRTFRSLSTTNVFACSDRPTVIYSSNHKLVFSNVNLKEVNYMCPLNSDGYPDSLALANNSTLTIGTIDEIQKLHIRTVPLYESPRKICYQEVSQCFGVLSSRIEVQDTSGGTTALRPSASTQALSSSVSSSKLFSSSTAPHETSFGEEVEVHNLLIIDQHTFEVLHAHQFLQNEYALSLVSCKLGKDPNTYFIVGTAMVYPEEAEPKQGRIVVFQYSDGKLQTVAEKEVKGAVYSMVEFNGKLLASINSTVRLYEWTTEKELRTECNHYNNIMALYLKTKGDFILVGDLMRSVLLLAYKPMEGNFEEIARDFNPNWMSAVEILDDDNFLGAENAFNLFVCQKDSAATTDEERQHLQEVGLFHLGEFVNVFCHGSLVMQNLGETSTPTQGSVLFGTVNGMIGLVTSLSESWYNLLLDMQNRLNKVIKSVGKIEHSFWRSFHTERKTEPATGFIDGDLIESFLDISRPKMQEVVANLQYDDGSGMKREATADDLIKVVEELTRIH
Outline: as §1

T1 sequence (P48729 whole entry): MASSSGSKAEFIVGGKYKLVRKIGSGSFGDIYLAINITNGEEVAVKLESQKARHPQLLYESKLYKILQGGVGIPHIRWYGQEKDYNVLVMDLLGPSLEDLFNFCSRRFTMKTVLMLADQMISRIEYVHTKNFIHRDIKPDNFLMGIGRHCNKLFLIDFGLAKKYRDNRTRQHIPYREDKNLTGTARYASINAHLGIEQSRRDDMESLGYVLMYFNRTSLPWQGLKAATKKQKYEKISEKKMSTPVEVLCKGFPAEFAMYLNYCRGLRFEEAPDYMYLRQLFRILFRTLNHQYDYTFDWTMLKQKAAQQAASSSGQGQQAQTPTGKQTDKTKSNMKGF
T1 sequence (Q96SW2 whole entry): as the sequence (Q96SW2 whole entry) above
T1 sequence (Q16531 whole entry partner): as the sequence (Q16531 whole entry partner) above

SMILES	CK1α Ymin ([1]; six hours incubation)	DC50 ([1]; six hours incubation)	DC50 ([2]; six hours incubation)	GSPT1 Ymin ([2]; six hours incubation)	CK1α Ymin ([1]; six hours)	DC50 ([1]; six hours)	DC50 ([2]; six hours)	GSPT1 Ymin ([2]; six hours)
Cc1cc(-c2c(-c3ccc4c(c3)CN(C3CCC(=O)NC3=O)C4=O)ncn2C)ccc1F (centres unmarked) [Example 238]	D (D = >10- 25% remaining)	< 25 nM	≥ 25 nM	F (F = >75-100% remaining)	–	–	–	–
COc1ccc(-c2c(-c3ccc4c(c3)CN(C3CCC(=O)NC3=O)C4=O)ncn2C)cc1OCc1ccccc1 (centres unmarked) [Example 358]	E (E = >25-75% remaining)	< 25 nM	≥ 25 nM	F (F = >75-100% remaining)	–	–	–	–
Cn1ncc(-c2ccc3c(c2)CN(C2CCC(=O)NC2=O)C3=O)c1-c1cc2ccccc2[nH]1 (centres unmarked) [Example 380]	–	–	–	–	E (E = >25-75% remaining)	< 25 nM	≥ 25 nM	F (F = >75-100% remaining)
Cn1cc(-c2ccc3c(c2)CN(C2CCC(=O)NC2=O)C3=O)nc1C1OCCCO1 (centres unmarked) [Example 415, 3-(5-(2-(1,3-dioxan-2-yl)-1-methyl-1H-imidazol-4-yl)-1-oxoisoindolin-2-yl) piperidine-2,6-dione]	–	–	–	–	E (E = >25-75% remaining)	< 25 nM	≥ 25 nM	F (F = >75-100% remaining)
Cn1cnc(-c2ccc3c(c2)CN(C2CCC(=O)NC2=O)C3=O)c1-c1ccc(O)cc1 (centres unmarked) [Example 163]	C (C = 0-10% remaining)	< 25 nM	≥ 25 nM	E (E = >25-75% remaining)	–	–	–	–
Cc1ccc(-c2c(-c3ccc4c(c3)CN(C3CCC(=O)NC3=O)C4=O)ncn2C)cc1F (centres unmarked) [Example 240]	D (D = >10- 25% remaining)	< 25 nM	< 25 nM	E (E = >25-75% remaining)	–	–	–	–
Cc1nn(C)c(-c2ccc3c(c2)CN(C2CCC(=O)NC2=O)C3=O)c1-c1ccccc1 (centres unmarked) [Example 18, 3-(5-(1,3-Dimethyl-4-phenyl-1H-pyrazol-5-yl)-1-oxoisoindolin-2-yl)piperidine-2,6-dione]	E (E = >25-75% remaining)	≥ 25 nM	≥ 25 nM	E (E = >25-75% remaining)	–	–	–	–
Cn1cnc(-c2ccc3c(c2)CN(C2CCC(=O)NC2=O)C3=O)c1-c1cccc2ccccc12 (centres unmarked) [Example 255]	E (E = >25-75% remaining)	< 25 nM	< 25 nM	F (F = >75-100% remaining)	–	–	–	–
Cn1ncc(-c2ccc3c(c2)CN(C2CCC(=O)NC2=O)C3=O)c1-c1ccc(F)cc1F (centres unmarked) [Example 130]	E (E = >25-75% remaining)	< 25 nM	≥ 25 nM	F (F = >75-100% remaining)	–	–	–	–
[2H]C([2H])([2H])n1ncc(-c2ccc3c(c2)CN(C2CCC(=O)NC2=O)C3=O)c1-c1ccc(OC)c(F)c1 (centres unmarked) [Example 431, 3-(5-(5-(3-fluoro-4-methoxyphenyl)-1-(methyl-d3)-1H-pyrazol-4-yl)-1-oxoisoindolin-2-yl)piperidine-2,6-dione]	–	–	–	–	C (C = 0-10% remaining)	< 25 nM	≥ 25 nM	F (F = >75-100% remaining)
Cn1cnc(-c2ccc3c(c2)CN(C2CCC(=O)NC2=O)C3=O)c1-c1cnc(C#N)nc1 (centres unmarked) [Example 325]	E (E = >25-75% remaining)	≥ 25 nM	≥ 25 nM	F (F = >75-100% remaining)	–	–	–	–
COc1cc(-c2c(-c3ccc4c(c3)CN(C3CCC(=O)NC3=O)C4=O)ncn2C)ccc1Cl (centres unmarked) [Example 351]	D (D = >10- 25% remaining)	≥ 25 nM	≥ 25 nM	F (F = >75-100% remaining)	–	–	–	–
Cn1cnc(-c2ccn3c(=O)n(C4CCC(=O)NC4=O)nc3c2)c1-c1ccccc1 (centres unmarked) [Example 20, 3-(7-(1-Methyl-5-phenyl-1H-imidazol-4-yl)-3-oxo-[1,2,4]triazolo[4,3-a]pyridin-2 (3H)-yl)piperidine-2,6-dione]	E (E = >25-75% remaining)	≥ 25 nM	≥ 25 nM	E (E = >25-75% remaining)	–	–	–	–
Cn1cnc(-c2ccc3c(c2)CN(C2CCC(=O)NC2=O)C3=O)c1-c1ccc(OCc2ccccc2)cc1 (centres unmarked) [Example 310]	D (D = >10- 25% remaining)	< 25 nM	≥ 25 nM	F (F = >75-100% remaining)	–	–	–	–
Cc1ccc(-c2c(-c3ccc4c(c3)CN(C3CCC(=O)NC3=O)C4=O)cnn2C)cc1Cl (centres unmarked) [Example 80]	E (E = >25-75% remaining)	< 25 nM	≥ 25 nM	F (F = >75-100% remaining)	–	–	–	–
Cn1ncc(-c2ccc3c(c2)CN(C2CCC(=O)NC2=O)C3=O)c1-c1ccc(-c2ccccc2)cc1 (centres unmarked) [Example 144]	E (E = >25-75% remaining)	< 25 nM	≥ 25 nM	F (F = >75-100% remaining)	–	–	–	–
Cn1ncc(-c2ccc3c(c2)CN(C2CCC(=O)NC2=O)C3=O)c1-c1ccc(N)nc1 (centres unmarked) [Example 370]	E (E = >25-75% remaining)	≥ 25 nM	≥ 25 nM	–	–	–	–	–
Cn1ncc(-c2ccc3c(c2)CN(C2CCC(=O)NC2=O)C3=O)c1-c1ccccc1C1CC1 (centres unmarked) [Example 115]	E (E = >25-75% remaining)	< 25 nM	≥ 25 nM	F (F = >75-100% remaining)	–	–	–	–
O=C1CCC(N2Cc3cc(-c4cc(-c5ccccc5)n(C(F)F)n4)ccc3C2=O)C(=O)N1 (centres unmarked) [Example 337, 3-(5-(1-(difluoromethyl)-5-phenyl-1H-pyrazol-3-yl)-1-oxoisoindolin-2-yl)piperidine-2,6-dione]	D (D = >10- 25% remaining)	≥ 25 nM	≥ 25 nM	F (F = >75-100% remaining)	–	–	–	–
Cn1ncc(-c2ccc3c(c2)CN(C2CCC(=O)NC2=O)C3=O)c1-c1ccc2[nH]ccc2c1 (centres unmarked) [Example 218]	D (D = >10- 25% remaining)	≥ 25 nM	≥ 25 nM	F (F = >75-100% remaining)	–	–	–	–
Cc1ccc(-c2c(-c3ccc4c(c3)CN(C3CCC(=O)NC3=O)C4=O)ncn2C)cc1CO (centres unmarked) [Example 252]	D (D = >10- 25% remaining)	< 25 nM	≥ 25 nM	E (E = >25-75% remaining)	–	–	–	–
Cc1c(-c2c(-c3ccc4c(c3)CN(C3CCC(=O)NC3=O)C4=O)cnn2C)cnn1C (centres unmarked) [Example 372]	E (E = >25-75% remaining)	≥ 25 nM	≥ 25 nM	F (F = >75-100% remaining)	–	–	–	–

Next, values leading:

CK1α Ymin ([1]; six hours incubation)	DC50 ([1]; six hours incubation)	DC50 ([2]; six hours incubation)	GSPT1 Ymin ([2]; six hours incubation)	CK1α Ymin ([1]; six hours)	DC50 ([1]; six hours)	DC50 ([2]; six hours)	GSPT1 Ymin ([2]; six hours)	SMILES
–	–	–	–	C (C = 0-10% remaining)	< 25 nM	≥ 25 nM	F (F = >75-100% remaining)	Cn1cnc(-c2ccc3c(c2)CN(C2CCC(=O)NC2=O)C3=O)c1-c1ccc2c(cnn2C)c1 (centres unmarked) [Example 513]
–	–	–	–	E (E = >25-75% remaining)	≥ 25 nM	≥ 25 nM	F (F = >75-100% remaining)	Cn1ccc(-c2c(-c3ccc4c(c3)CN(C3CCC(=O)NC3=O)C4=O)cnn2C)n1 (centres unmarked) [Example 470]
–	–	–	–	E (E = >25-75% remaining)	≥ 25 nM	< 25 nM	F (F = >75-100% remaining)	Cc1c(-c2c(-c3ccc4c(c3)CN(C3CCC(=O)NC3=O)C4=O)cnn2C)cnn1-c1ccccc1 (centres unmarked) [Example 481]
–	–	–	–	C (C = 0-10% remaining)	< 25 nM	< 25 nM	F (F = >75-100% remaining)	COc1cc(-c2nc(-c3ccc4c(c3)CN(C3CCC(=O)NC3=O)C4=O)cn2C)ccc1Cl (centres unmarked) [Example 579]
–	–	–	–	F (F = >75-100% remaining)	≥ 25 nM	≥ 25 nM	F (F = >75-100% remaining)	Cn1ncc(-c2ccc3c(c2)CN(C2CCC(=O)NC2=O)C3=O)c1-c1cnn(Cc2cccnc2)c1 (centres unmarked) [Example 464]
–	–	–	–	D (D = >10- 25% remaining)	< 25 nM	≥ 25 nM	F (F = >75-100% remaining)	Cn1nc(-c2ccc3c(c2)CN(C2CCC(=O)NC2=O)C3=O)nc1N1CCC(C)(C)CC1 (centres unmarked) [Example 612, 3-(5-(5-(4,4-dimethylpiperidin-1-yl)-1-methyl-1H-1,2,4-triazol-3-yl)-1-oxoisoindolin-2-yl)piperidine-2,6-dione]
–	–	–	–	C (C = 0-10% remaining)	< 25 nM	< 25 nM	E (E = >25-75% remaining)	COc1cccc(-c2nc(-c3ccc4c(c3)CN(C3CCC(=O)NC3=O)C4=O)cn2C)c1 (centres unmarked) [Example 578]
–	–	–	–	C (C = 0-10% remaining)	< 25 nM	< 25 nM	E (E = >25-75% remaining)	Cn1cnc(-c2ccc3c(c2)CN(C2CCC(=O)NC2=O)C3=O)c1-c1cccc(F)c1 (centres unmarked) [Example 441]
–	–	–	–	C (C = 0-10% remaining)	< 25 nM	≥ 25 nM	F (F = >75-100% remaining)	Cn1c(C2CCOCC2)nc(-c2ccc3c(c2)CN(C2CCC(=O)NC2=O)C3=O)c1C1CC1 (centres unmarked) [Example 604, 3-(5-(5-cyclopropyl-1-methyl-2-(tetrahydro-2H-pyran-4-yl)-1H-imidazol-4-yl)-1-oxoisoindolin-2-yl)piperidine-2,6-dione]
–	–	–	–	C (C = 0-10% remaining)	≥ 25 nM	≥ 25 nM	E (E = >25-75% remaining)	Cn1cnc(-c2ccc3c(c2)CN(C2CCC(=O)NC2=O)C3=O)c1-c1cn[nH]c1 (centres unmarked) [Example 531]
–	–	–	–	C (C = 0-10% remaining)	< 25 nM	< 25 nM	F (F = >75-100% remaining)	Cn1cc(-c2ccc3c(c2)CN(C2CCC(=O)NC2=O)C3=O)nc1-c1ccc(C2CCCCC2)cc1 (centres unmarked) [Example 582]
